# Results reported in patent publication US20220072138A1, “NRTI THERAPIES” (THE UNIVERSITY OF LIVERPOOL, priority 2018, published 2022).
# Experiments:
# [1] = primate; cited from earlier work
# [2] = test system: HIV; conditions: cited from earlier work
# [3] = test system: HIV; conditions: in vivo; cited from earlier work
# [4] = Stability of carbamate 5 under model polymerization conditions; format: physicochemical; conditions: CH2Cl2, 0.5 eq DMAP, 2 eq pyridine, RT
# Description: Stability of compound 5 under polymerization conditions. Carbamate 5 is shown to release TAF in a time bond manner. To determine the stability of carbamate moiety under polymerization conditions and evaluate the utility of TAF phenyl carbamates, carbamate 5 was tested for its stability under model polymerization conditions. A solution of carbamate 5 in methylene chloride (CH2Cl2) was stirred with 0.5 molar equivalent of 4-Dimethylaminopyridine and 2 molar equivalents of pyridine at room temperature (RT, 22-25° C.) for 24 h. The portion of the reaction mixture was removed and dissolved in DMSO followed by analysis of the reaction mixture using HPLC to determine amount of TAF formed and carbamate 5 left after 24 h. Standard curve was used to determine that 20.5% TAF was formed after 24 hours, leaving 79.5% carbamate 5 intact (FIG. 23).
# [5] = Solubility of carbamate 5 in phosphate buffer; format: physicochemical; conditions: 100 mM phosphate buffer pH 7.4 with 5% DMSO v/v
# Description: Carbamate 5 was synthesized according to the process described above. Purity. The compound was dissolved in DMSO (100 μM) and injected on HPLC to determine purity of 95.1% at 269-270 nm. Standard Curve. Serial dilution of carbamate 5 in DMSO (100 μM to 0.78 μM) was done and each sample injected on HPLC. The UV absorbance at different concentrations was used to obtain a linear standard curve. The standard curve was used in determining solubility in buffers, kinetics of degradation at pH 7.4 and stability under polymerization conditions. Solubility. Carbamate 5 in DMSO was mixed with 100 mM phosphate buffer pH7.4 with varying amounts of DMSO (0.1% v/v, 0.5% v/v, 1% v/v and 5% v/v). The mixtures were centrifuged at 14000 rpm for 5 min and the supernatant injected on HPLC.
# [6] = In vitro metabolism of FTC POP fragments in human skeletal muscle S9; format: in vitro ADME; conditions: human skeletal muscle S9, 1 mM, 37° C.
# Description: (§1) After incubation at 37° C., aliquots were taken at each time point and quenched in 2 volumes of Ice-cold methanol. The quenched aliquots were then centrifuged at 14000 rpm for 5 min. The supernatant was diluted 10-fold Into phosphate buffer (0.1 M, pH 7.4) and injected onto the HPLC for analysis (5% to 100% B over 8 minutes at a flow rate of 1 mL mi; solvent A: 50 mM Et3NHOAc, pH 8; solvent B: acetonitrile) and read spectrophotometrically monitoring a decrease in substrate peak area at 305 nm (23) or 280 nm (25) over time. Quantification of 23 at each time point to determine rate was achieved by converting peak areas to nmols using a standard curve (23). Quantification of 25 at each time point to determine rate was achieved by calculating nmols based on the percent of total peak area at 250 nm (25+26, 200 nmol total). Hydrolysis of 25 yields two molar equivalents of 1, determined by quantifying 1 using a standard curve following full conversion of 25 to 1.
# Human S9-Skeletal Muscle (Bioreclamation IVT). Solution used for in vitro metabolism is a 50/50 mix of Male Human S9 (Bioreclamation IVT, Cat #S03517) and Female Human S9 (Bioreclamation IVT, Cat #S03518). Protein concentrations (mg/mL) were determined by averaging the concentrations provided by Bioreclamation.
# [7] = in vitro; format: in vitro ADME; conditions: both sexes, human, plasma, pH 7.4
# Description: as §1
# Human Plasma (Bioreclamation IVT). Solution used for in vitro metabolism is a 50/50 mix of Human Plasma (Male) (Bioreclamation IVT, Cat #[…]2-M) and Human Plasma (Female) (Bioreclamation IVT, Cat #[…]2-F)
# [8] = In vitro metabolism of FTC POP fragments in human liver S9; format: in vitro ADME; conditions: human liver S9, 1 mM, 37° C.
# Description: as §1
# Human Liver S9 Fraction-Pool of 50 (Sekuisi Xenotech, Product #HO610.59; 20 mg/mL stock)
molecule,measurement,setting,value
"C#C[C@]1(CO)O[C@@H](n2cnc3c(N)nc(F)nc32)C[C@@H]1O [EFdA, 4′-ethynyl-2-fluoro-2′-deoxyadenosine]",plasma t1/2,[1],~7 h
same,predicted in vitro potency relative to TFV,[2]; higher than TFV,~8400 fold
same,IC50,[2]; read-out: in vitro IC50,~0.2 nM
same,viral suppression maintained after the last dose,[3],≥ 7 days
"N-(2,4,6-trimethylphenyl)-tenofovir alafenamide carbamate [carbamate 5]",TAF formed after 24 hours,[4],20.5%
same,carbamate 5 left intact after 24 hours,[4],79.5%
same,solubility (achievable concentration),[5],111.2 µM
"O=C(Nc1nc(=O)n([C@@H]2CS[C@H](CO)O2)cc1F)OCCOCCOCCOC(=O)Nc1nc(=O)n([C@@H]2CS[C@H](CO)O2)cc1F [Polymer 23, (ethane-1,2-diylbis(oxy))bis(ethane-2,1-diyl) bis((5-fluoro-1-((2R,5S)-2-(hydroxymethyl)-1,3-oxathiolan-5-yl)-2-oxo-1,2-dihydropyrimidin-4-yl)carbamate)]",Muscle S9 initial rate (rate of disappearance of starting material),[6],*Non-linear trend
same,half-life at 1 mM,[7],13 ± 1.5 h
same,Liver S9 initial rate (rate of disappearance of starting material),[8],0.6 ± 0.06 nmol/h/mg
"Nc1nc(=O)n([C@@H]2CS[C@H](COC(=O)OCCOCCOCCOC(=O)OC[C@@H]3O[C@H](n4cc(F)c(N)nc4=O)CS3)O2)cc1F [Polymer 25, bis(((2R,5S)-5-(4-amino-5-fluoro-2-oxopyrimidin-1(2H)-yl)-1,3-oxathiolan-2-yl)methyl) ((ethane-1,2-diylbis(oxy))bis(ethane-2,1-diyl)) bis(carbonate)]",Muscle S9 initial rate (rate of disappearance of starting material),[6],3.7 ± 0.4 nmol/h/mg
same,half-life at 1 mM,[7],0.45 ± 0.02 h
same,Liver S9 initial rate (rate of disappearance of starting material),[8],1014 ± 86 nmol/h/mg
